Literature values in patent US9668986B2, “Ophthalmic, intra-articular or intravesical preparations containing N-acyl-ethanolamines” (EPITECH GROUP S.R.I., priority 2014, dated 2017).

How the values were obtained:
[1] = target: cannabinoid receptors CB1 (Homo sapiens, UniProt P21554)
CB2 = CB2 (Homo sapiens, UniProt P34972)
CB2, sequence (P34972 whole entry, species assumed): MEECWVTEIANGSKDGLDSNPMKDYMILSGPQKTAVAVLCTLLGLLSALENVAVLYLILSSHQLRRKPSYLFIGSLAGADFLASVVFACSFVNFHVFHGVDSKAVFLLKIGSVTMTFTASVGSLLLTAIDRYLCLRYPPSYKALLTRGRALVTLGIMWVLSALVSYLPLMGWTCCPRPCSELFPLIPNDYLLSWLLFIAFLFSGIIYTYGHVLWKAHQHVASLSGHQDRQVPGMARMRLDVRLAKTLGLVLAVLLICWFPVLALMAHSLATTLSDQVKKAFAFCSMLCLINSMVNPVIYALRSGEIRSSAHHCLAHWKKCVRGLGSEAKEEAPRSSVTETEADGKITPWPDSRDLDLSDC

cannabinoid receptors CB1, sequence (P21554 whole entry): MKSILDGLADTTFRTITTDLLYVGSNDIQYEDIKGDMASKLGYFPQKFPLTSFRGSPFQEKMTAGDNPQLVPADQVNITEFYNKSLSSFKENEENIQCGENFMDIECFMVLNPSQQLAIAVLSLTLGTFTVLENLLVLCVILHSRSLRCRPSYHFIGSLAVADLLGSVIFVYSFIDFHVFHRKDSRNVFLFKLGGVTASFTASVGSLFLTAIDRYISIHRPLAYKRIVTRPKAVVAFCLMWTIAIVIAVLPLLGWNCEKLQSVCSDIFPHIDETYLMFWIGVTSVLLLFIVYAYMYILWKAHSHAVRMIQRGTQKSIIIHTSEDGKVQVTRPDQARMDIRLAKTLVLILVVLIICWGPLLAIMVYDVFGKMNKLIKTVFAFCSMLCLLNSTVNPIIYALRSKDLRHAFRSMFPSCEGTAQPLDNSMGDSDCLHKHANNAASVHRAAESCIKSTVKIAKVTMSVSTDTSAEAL

Compound: CCCCCCCCCCCCCCCC(=O)NCCO [PEA, N-palmitoylethanolamine]
- water solubility: not water-soluble
- affinity for CB1 [1]: poor affinity
- affinity for CB2 (CB2): poor affinity
